Data from the OligoGym collection.
HELM strings list units from the 5' end as sugar, base in round brackets, then linkage (d deoxyribose, r ribose, m 2'-O-methyl, p phosphodiester). Strings are as the collection lists them; they lack the last nucleoside at the 3' end of the tested compound. [moe] = 2'-O-(2-methoxyethyl) (MOE); [sp] = phosphorothioate linkage; [m5C] = 5-methylcytosine

The substances below were run against APP (assay: mouse, dose not given). Details: ASO.

Row | Substance | 3 h FOB score
1 | RNA1{[moe](G)[sp].[moe](T)p.[moe](A)p.[moe]([m5C])p.[moe](A)[sp].d(T)[sp].d(A)[sp].d(T)[sp].d(T)[sp].d([m5C])[sp].d(A)[sp].d(T)[sp].d(T)[sp].d([m5C])[sp].d(A)[sp].[moe](A)p.[moe](T)p.[moe]([m5C])[sp].[moe](T)}$$$$ (last 3' nucleoside missing) | 0 score 0-7
2 | RNA1{[moe]([m5C])[sp].[moe]([m5C])p.[moe](A)p.[moe](T)p.[moe]([m5C])[sp].d(T)[sp].d(T)[sp].d([m5C])[sp].d(A)[sp].d([m5C])[sp].d(T)[sp].d(T)[sp].d([m5C])[sp].d(A)[sp].d(G)[sp].[moe](A)p.[moe](G)p.[moe](A)[sp].[moe](T)}$$$$ (last 3' nucleoside missing) | 0.5 score 0-7
3 | RNA1{[moe](A)[sp].[moe](A)p.[moe](A)p.[moe]([m5C])p.[moe](T)[sp].d([m5C])[sp].d(T)[sp].d(A)[sp].d([m5C])[sp].d([m5C])[sp].d([m5C])[sp].d([m5C])[sp].d(T)[sp].d([m5C])[sp].d(G)[sp].[moe](G)p.[moe](A)p.[moe](A)[sp].[moe]([m5C])}$$$$ (last 3' nucleoside missing) | 1 score 0-7
4 | RNA1{[moe](T)[sp].[moe](G)p.[moe](A)p.[moe](T)p.[moe](G)[sp].d([m5C])[sp].d(A)[sp].d([m5C])[sp].d(A)[sp].d(T)[sp].d(A)[sp].d(T)[sp].d([m5C])[sp].d([m5C])[sp].d(A)[sp].[moe](G)p.[moe](G)p.[moe]([m5C])[sp].[moe](T)}$$$$ (last 3' nucleoside missing) | 0.25 score 0-7
5 | RNA1{[moe](G)[sp].[moe]([m5C])p.[moe](A)p.[moe](G)p.[moe]([m5C])[sp].d(A)[sp].d(G)[sp].d(G)[sp].d(T)[sp].d(T)[sp].d(T)[sp].d([m5C])[sp].d([m5C])[sp].d(A)[sp].d(T)[sp].[moe](A)p.[moe](A)p.[moe](A)[sp].[moe]([m5C])}$$$$ (last 3' nucleoside missing) | 0 score 0-7
6 | RNA1{[moe](A)[sp].[moe](A)p.[moe](G)p.[moe]([m5C])p.[moe](T)[sp].d(T)[sp].d(A)[sp].d([m5C])[sp].d(A)[sp].d(T)[sp].d([m5C])[sp].d(A)[sp].d(T)[sp].d(T)[sp].d(T)[sp].[moe](T)p.[moe]([m5C])p.[moe](T)[sp].[moe](T)}$$$$ (last 3' nucleoside missing) | 1.33 score 0-7
7 | RNA1{[moe]([m5C])[sp].[moe]([m5C])p.[moe](A)p.[moe](A)p.[moe](A)[sp].d(G)[sp].d(A)[sp].d(T)[sp].d(T)[sp].d([m5C])[sp].d([m5C])[sp].d(A)[sp].d([m5C])[sp].d(T)[sp].d(T)[sp].[moe](T)p.[moe]([m5C])p.[moe](T)[sp].[moe]([m5C])}$$$$ (last 3' nucleoside missing) | 0 score 0-7
8 | RNA1{[moe](G)[sp].[moe](T)p.[moe]([m5C])p.[moe]([m5C])p.[moe](A)[sp].d(A)[sp].d(A)[sp].d(A)[sp].d([m5C])[sp].d(A)[sp].d([m5C])[sp].d(A)[sp].d(G)[sp].d(T)[sp].d(A)[sp].[moe]([m5C])p.[moe](A)p.[moe](A)[sp].[moe]([m5C])}$$$$ (last 3' nucleoside missing) | 1.67 score 0-7
9 | RNA1{[moe]([m5C])[sp].[moe](A)p.[moe](T)p.[moe](G)p.[moe](G)[sp].d([m5C])[sp].d(T)[sp].d(T)[sp].d([m5C])[sp].d([m5C])[sp].d(A)[sp].d([m5C])[sp].d(T)[sp].d([m5C])[sp].d(T)[sp].[moe](G)p.[moe](G)p.[moe]([m5C])[sp].[moe]([m5C])}$$$$ (last 3' nucleoside missing) | 1 score 0-7
10 | RNA1{[moe](G)[sp].[moe]([m5C])p.[moe](A)p.[moe](T)p.[moe]([m5C])[sp].d(T)[sp].d(T)[sp].d(T)[sp].d(T)[sp].d(A)[sp].d([m5C])[sp].d(T)[sp].d(A)[sp].d(T)[sp].d([m5C])[sp].[moe](T)p.[moe](G)p.[moe]([m5C])[sp].[moe]([m5C])}$$$$ (last 3' nucleoside missing) | 0 score 0-7
11 | RNA1{[moe](T)[sp].[moe](G)p.[moe](T)p.[moe](G)p.[moe](A)[sp].d(T)[sp].d(T)[sp].d(T)[sp].d([m5C])[sp].d(A)[sp].d([m5C])[sp].d(T)[sp].d(A)[sp].d(A)[sp].d([m5C])[sp].[moe]([m5C])p.[moe](G)p.[moe](G)[sp].[moe]([m5C])}$$$$ (last 3' nucleoside missing) | 1.25 score 0-7
12 | RNA1{[moe](G)[sp].[moe]([m5C])p.[moe](A)p.[moe]([m5C])p.[moe](A)[sp].d(A)[sp].d(T)[sp].d(T)[sp].d(A)[sp].d(T)[sp].d(T)[sp].d(G)[sp].d(T)[sp].d(T)[sp].d(T)[sp].[moe]([m5C])p.[moe]([m5C])p.[moe](T)[sp].[moe]([m5C])}$$$$ (last 3' nucleoside missing) | 1 score 0-7
13 | RNA1{[moe]([m5C])[sp].[moe](T)p.[moe](T)p.[moe]([m5C])p.[moe]([m5C])p.[moe]([m5C])p.d(A)[sp].d(T)[sp].d(T)[sp].d([m5C])[sp].d(T)[sp].d([m5C])[sp].d(T)[sp].d([m5C])[sp].d(A)[sp].d(T)[sp].[moe](G)p.[moe](A)[sp].[moe]([m5C])}$$$$ (last 3' nucleoside missing) | 0 score 0-7
14 | RNA1{[moe](G)[sp].[moe]([m5C])p.[moe](A)p.[moe](T)p.[moe](T)[sp].d([m5C])[sp].d(T)[sp].d([m5C])[sp].d(T)[sp].d(T)[sp].d(A)[sp].d(T)[sp].d(A)[sp].d(T)[sp].d(T)[sp].[moe]([m5C])p.[moe]([m5C])p.[moe](T)[sp].[moe](T)}$$$$ (last 3' nucleoside missing) | 0 score 0-7
15 | RNA1{[moe](T)[sp].[moe](T)p.[moe](A)p.[moe]([m5C])p.[moe]([m5C])[sp].d(T)[sp].d(T)[sp].d(T)[sp].d(A)[sp].d(A)[sp].d([m5C])[sp].d(A)[sp].d(T)[sp].d(T)[sp].d([m5C])[sp].[moe]([m5C])p.[moe](T)p.[moe]([m5C])[sp].[moe](A)}$$$$ (last 3' nucleoside missing) | 0 score 0-7
16 | RNA1{[moe](T)[sp].[moe](T)p.[moe](A)p.[moe]([m5C])p.[moe](A)[sp].d(T)[sp].d([m5C])[sp].d(A)[sp].d(T)[sp].d(T)[sp].d(T)[sp].d(T)[sp].d([m5C])[sp].d(T)[sp].d(T)[sp].[moe](G)p.[moe]([m5C])p.[moe](A)[sp].[moe](G)}$$$$ (last 3' nucleoside missing) | 0.33 score 0-7
17 | RNA1{[moe](A)[sp].[moe](T)p.[moe](G)p.[moe](G)p.[moe](A)[sp].d(T)[sp].d([m5C])[sp].d(T)[sp].d(G)[sp].d(A)[sp].d(A)[sp].d(T)[sp].d([m5C])[sp].d([m5C])[sp].d([m5C])[sp].[moe](A)p.[moe]([m5C])p.[moe](T)[sp].[moe](T)}$$$$ (last 3' nucleoside missing) | 1 score 0-7
18 | RNA1{[moe](G)[sp].[moe]([m5C])p.[moe](G)p.[moe](G)p.[moe](A)[sp].d([m5C])[sp].d(A)[sp].d(T)[sp].d(A)[sp].d([m5C])[sp].d(T)[sp].d(T)[sp].d([m5C])[sp].d(T)[sp].d(T)[sp].[moe](T)p.[moe](A)p.[moe](G)[sp].[moe]([m5C])}$$$$ (last 3' nucleoside missing) | 0 score 0-7
19 | RNA1{[moe]([m5C])[sp].[moe](T)p.[moe](T)p.[moe]([m5C])p.[moe]([m5C])[sp].d([m5C])[sp].d(A)[sp].d(T)[sp].d(T)[sp].d([m5C])[sp].d(T)[sp].d([m5C])[sp].d(T)[sp].d([m5C])[sp].d(A)[sp].[moe](T)p.[moe](G)p.[moe](A)[sp].[moe]([m5C])}$$$$ (last 3' nucleoside missing) | 0.25 score 0-7
20 | RNA1{[moe](G)[sp].[moe]([m5C])p.[moe](A)p.[moe](T)p.[moe]([m5C])[sp].d(A)[sp].d([m5C])[sp].d(A)[sp].d(A)[sp].d(T)[sp].d(T)[sp].d([m5C])[sp].d(T)[sp].d(T)[sp].d([m5C])[sp].[moe](A)p.[moe](T)p.[moe](T)[sp].[moe](G)}$$$$ (last 3' nucleoside missing) | 0 score 0-7
21 | RNA1{[moe](A)[sp].[moe]([m5C])p.[moe](A)p.[moe]([m5C])p.[moe](A)[sp].d([m5C])[sp].d(A)[sp].d(A)[sp].d(A)[sp].d([m5C])[sp].d(T)[sp].d([m5C])[sp].d(T)[sp].d(A)[sp].d([m5C])[sp].[moe]([m5C])p.[moe]([m5C])p.[moe]([m5C])[sp].[moe](T)}$$$$ (last 3' nucleoside missing) | 0.5 score 0-7
22 | RNA1{[moe]([m5C])[sp].[moe](T)[sp].[moe](T)p.[moe]([m5C])p.[moe]([m5C])[sp].d([m5C])[sp].d(A)[sp].d(T)[sp].d(T)[sp].d([m5C])[sp].d(T)[sp].d([m5C])[sp].d(T)[sp].d([m5C])[sp].d(A)[sp].[moe](T)p.[moe](G)p.[moe](A)[sp].[moe]([m5C])}$$$$ (last 3' nucleoside missing) | 1 score 0-7
23 | RNA1{[moe](G)[sp].[moe]([m5C])p.[moe](G)p.[moe]([m5C])p.[moe](A)[sp].d(T)[sp].d(T)[sp].d(T)[sp].d(A)[sp].d(T)[sp].d(A)[sp].d([m5C])[sp].d(A)[sp].d(A)[sp].d(T)[sp].[moe](A)p.[moe](T)p.[moe](A)[sp].[moe]([m5C])}$$$$ (last 3' nucleoside missing) | 0 score 0-7
24 | RNA1{[moe](A)[sp].[moe](A)p.[moe](G)p.[moe](G)p.[moe]([m5C])[sp].d(A)[sp].d(T)[sp].d(G)[sp].d([m5C])[sp].d(A)[sp].d(T)[sp].d(T)[sp].d(T)[sp].d(T)[sp].d(T)[sp].[moe](A)p.[moe](G)p.[moe](G)[sp].[moe](G)}$$$$ (last 3' nucleoside missing) | 1.67 score 0-7
25 | RNA1{[moe](G)[sp].[moe](G)p.[moe]([m5C])p.[moe](A)p.[moe](T)[sp].d([m5C])[sp].d(A)[sp].d([m5C])[sp].d(T)[sp].d(T)[sp].d(A)[sp].d([m5C])[sp].d(A)[sp].d(A)[sp].d(A)[sp].[moe]([m5C])p.[moe](T)p.[moe]([m5C])[sp].[moe](A)}$$$$ (last 3' nucleoside missing) | 0.375 score 0-7
